Results published in the supplement of paper PMC7661543.
± gives the standard deviation of the averaged measurements.

Columns and labels:
Test in all cases: relative cell number vs DMSO control (72 h) (% of DMSO); higher = less growth inhibition (more cells)
Settings in all cases: sgRNA knockout: sgNT
BT-20 = tested on: BT-20
Protocol: (§1)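 QMAP-Seq: a pool of 5 breast cancer cell lines (ZR-75-1, SKBR3, HCC-38, MDA-MB-231, BT-20), each carrying 12 doxycycline-inducible Cas9 sgRNA perturbations (11 knockouts plus non-targeting sgNT), was treated with compounds for 72 h at four 10-fold doses (10 nM-10 uM or 1 nM-1 uM range). Barcodes were amplified and sequenced, and cell number was interpolated from 293T spike-in standard curves. The result is expressed as % of the median of DMSO wells. Two biological replicates.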

HCC-38 = tested on: HCC-38
Protocol: as §1

MDA-MB-231 = tested on: MDA-MB-231
Protocol: as §1

SKBR3 = tested on: SKBR3
Protocol: as §1

ZR-75-1 = tested on: ZR-75-1
Protocol: as §1

Row | Compound | relative cell number (BT-20; 10 nM) | relative cell number (BT-20; 100 nM) | relative cell number (BT-20; 1000 nM) | relative cell number (BT-20; 10000 nM) | relative cell number (HCC-38; 10 nM) | relative cell number (HCC-38; 100 nM) | relative cell number (HCC-38; 1000 nM) | relative cell number (HCC-38; 10000 nM) | relative cell number (MDA-MB-231; 10 nM) | relative cell number (MDA-MB-231; 100 nM) | relative cell number (MDA-MB-231; 1000 nM) | relative cell number (MDA-MB-231; 10000 nM) | relative cell number (SKBR3; 10 nM) | relative cell number (SKBR3; 100 nM) | relative cell number (SKBR3; 1000 nM) | relative cell number (SKBR3; 10000 nM) | relative cell number (ZR-75-1; 10 nM) | relative cell number (ZR-75-1; 100 nM) | relative cell number (ZR-75-1; 1000 nM) | relative cell number (ZR-75-1; 10000 nM)
1 | COc1cc2ncnc(Nc3ccc(F)c(Cl)c3)c2cc1OCCCN1CCOCC1 [Gefitinib] | 95.4 ± 5.2 | 80.8 ± 9.2 | 86.3 ± 16 | 62.8 ± 13 | 84.4 ± 11 | 105.03 ± 0.0072 | 105 ± 18 | 92.41 ± 0.25 | 83.3 ± 31 | 76.2 ± 23 | 81.2 ± 19 | 108 ± 12 | 78.7 ± 18 | 95.3 ± 31 | 48.5 ± 17 | 36.6 ± 7.8 | 101 ± 13 | 116 ± 49 | 51.61 ± 0.097 | 44.4 ± 13
2 | Nc1ccn([C@@H]2O[C@H](CO)[C@@H](O)C2(F)F)c(=O)n1 [Gemcitabine] | 68 ± 3.1 | 34 ± 5.5 | 28.3 ± 5 | 23.9 ± 15 | 20.2 ± 3.4 | 10.5 ± 0.58 | 12.9 ± 3.4 | 11.1 ± 3.8 | 18.5 ± 3.2 | 20.3 ± 7.1 | 15.6 ± 1.6 | 14 ± 3.5 | 26.2 ± 2.4 | 7.58 ± 1.7 | 11.1 ± 5.8 | 14.1 ± 6.9 | 36.6 ± 15 | 26.4 ± 0.51 | 33.9 ± 6 | 30.5 ± 2.7
3 | Cc1cc2c(C(C)C)c(O)c(O)c(C=O)c2c(O)c1-c1c(C)cc2c(C(C)C)c(O)c(O)c(C=O)c2c1O [Gossypol] | 96.2 ± 1.7 | 80.1 ± 8.4 | 113 ± 39 | 44.9 ± 2 | 96.4 ± 16 | 91.6 ± 12 | 107.2 ± 0.47 | 27 ± 1.4 | 125 ± 38 | 87.2 ± 6.4 | 103 ± 33 | 22.7 ± 7.3 | 101.3 ± 0.15 | 94.3 ± 8.1 | 103 ± 7.4 | 24.6 ± 2.8 | 129 ± 19 | 96 ± 13 | 106 ± 54 | 26.9 ± 14
4 | COc1cc2c(cc1-c1c(C)noc1C)ncc1[nH]c(=O)n([C@H](C)c3ccccn3)c12 [IBET151] | 82.5 ± 2.4 | 90.5 ± 39 | 72.5 ± 0.91 | 49.4 ± 3.8 | 85.1 ± 6.5 | 82.8 ± 13 | 60.2 ± 2.5 | 53.6 ± 3.3 | 88.1 ± 9 | 72.1 ± 3.6 | 42.4 ± 2 | 19 ± 15 | 64.9 ± 9 | 88.5 ± 6.6 | 47.8 ± 1.4 | 31.9 ± 9.4 | 65.6 ± 36 | 104 ± 28 | 49 ± 4.5 | 37.5 ± 0.4
5 | O=P1(NCCCl)OCCCN1CCCl (stereo not given) [Ifosfamide] | 71.6 ± 2.8 | 89.6 ± 16 | 109.5 ± 0.23 | 84.7 ± 16 | 107 ± 4.6 | 96 ± 20 | 105 ± 14 | 100 ± 11 | 75.5 ± 8 | 95.4 ± 25 | 103 ± 13 | 95.5 ± 5.4 | 74.2 ± 5.4 | 74.6 ± 24 | 82.8 ± 25 | 71.9 ± 38 | 69.6 ± 31 | 107 ± 35 | 79.1 ± 40 | 85.6 ± 8.3
6 | O=C(/C=C/c1ccc(O)cc1)c1ccc(O)cc1O [Isoliquiritigenin] | 113 ± 12 | 95.4 ± 25 | 80.4 ± 11 | 94.9 ± 1.9 | 96.1 ± 6.6 | 92.5 ± 6.5 | 96.7 ± 11 | 86.5 ± 9.8 | 87.3 ± 22 | 75.5 ± 23 | 87 ± 3 | 88 ± 26 | 83.1 ± 20 | 109 ± 30 | 82.7 ± 16 | 68.9 ± 8.6 | 120 ± 22 | 88 ± 10 | 99.8 ± 30 | 83.9 ± 5.5
